Measurements: patent US6887669B1, “Reagents for assays for ligands” (Dade Behring Marburg GmbH, priority 1996, dated 2005)

Tested on: MPA bound to plasma proteins in normal human plasma pool (NHP)
Assay: EMIT-type enzyme immunoassay for MPA with o-anisic acid in Reagent A: quantitation of MPA spike in NHP versus protein-free PBS
Conditions: average of two spikes, formulation with o-anisic acid, pooled sd 0.4 μg/mL
Procedure: Reagent A was prepared by first making an anisic acid solution. Anisic acid was dissolved in 1 N NaOH in an amount equal to 25 mL per 1.52 grams of anisic acid. In a separate container was weighed 70% of the final weight of deionized water, to which was added components 1 through 5 inclusive and also component 6 using the prepared solution of Pluronic®25R2 at 10 mL thereof per 1017.9 g (or 1.0 liter) of final solution. This solution was stirred and the anisic acid solution was added. If necessary, the pH of the preparation was adjusted within the range of 5.50 to 5.70 with 6 N NaOH. Next, components 8 and 9 were added and the solution was stirred. If necessary, the pH was adjusted to the above range. […]
For Reagent B deionized water was weighed in an amount equal to 80% of the final weight. […] The conjugate, component 19, was added to achieve a rate of 300±10 mA/min; rate is defined as the change in absorbance at 340 nm per minute of reaction time and is usually expressed as mA/min.
Rates were determined on a Cobas Mira Plus® instrument (Roche Diagnostics Systems, Inc., Branchburg, N.J.). […] During the assay, absorbance readings at 340 nm were made at the end of every cycle. A best linear fit was then made using only the 12 consecutive absorbance readings of cycles 14 through 25 versus time in minutes. […]

With `COc1ccccc1C(=O)O` [o-AA, o-methoxybenzoic acid] the “quantitation of a 10 μg/mL MPA spike in normal human plasma pool (NHP)” value was 10.2 µg/mL and the “quantitation of a 10 μg/mL MPA spike in PBS” value (protein-free PBS) was 10.4 µg/mL.
